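How tested: cells in 96-well plates exposed to compound for 48 hours at five concentrations. TGI marks complete inhibition of growth.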
Columns and labels:
Test in all cases: growth of human tumour cells (NCI), 48 h
HS 578T breast = system: HS 578T breast
MDA-MB-231 breast = system: MDA-MB-231 breast
SNB-75 CNS = system: SNB-75 CNS
HCT-15 colon = system: HCT-15 colon
MCF7 breast = system: MCF7 breast
A498 renal = system: A498 renal
SN12C renal = system: SN12C renal
RXF 393 renal = system: RXF 393 renal
LOX IMVI melanoma = system: LOX IMVI melanoma
HL-60(TB) leukemia = system: HL-60(TB) leukemia
T-47D breast = system: T-47D breast
MDA-N = system: MDA-N
TK-10 renal = system: TK-10 renal
IGROV1 ovarian = system: IGROV1 ovarian
KM12 colon = system: KM12 colon
MOLT-4 leukemia = system: MOLT-4 leukemia
COLO 205 colon = system: COLO 205 colon
SW-620 colon = system: SW-620 colon
CCRF-CEM leukemia = system: CCRF-CEM leukemia
EKVX NSCLC = system: EKVX NSCLC
BT-549 breast = system: BT-549 breast
HOP-62 NSCLC = system: HOP-62 NSCLC
UACC-257 melanoma = system: UACC-257 melanoma
UO-31 renal = system: UO-31 renal
U251 CNS = system: U251 CNS
SK-MEL-5 melanoma = system: SK-MEL-5 melanoma
OVCAR-5 ovarian = system: OVCAR-5 ovarian
SK-MEL-28 melanoma = system: SK-MEL-28 melanoma
HCT-116 colon = system: HCT-116 colon
SF-295 CNS = system: SF-295 CNS
MDA-MB-435 = system: MDA-MB-435
OVCAR-3 ovarian = system: OVCAR-3 ovarian
SNB-19 CNS = system: SNB-19 CNS
SK-OV-3 ovarian = system: SK-OV-3 ovarian
RPMI-8226 leukemia = system: RPMI-8226 leukemia
NCI-H522 lung = system: NCI-H522 lung
HOP-92 NSCLC = system: HOP-92 NSCLC
SK-MEL-2 melanoma = system: SK-MEL-2 melanoma
786-0 renal = system: 786-0 renal
NCI-H460 lung = system: NCI-H460 lung
K-562 leukemia = system: K-562 leukemia
UACC-62 melanoma = system: UACC-62 melanoma
DU-145 prostate = system: DU-145 prostate
SR leukemia = system: SR leukemia
SF-539 CNS = system: SF-539 CNS
ACHN renal = system: ACHN renal
CAKI-1 renal = system: CAKI-1 renal
PC-3 prostate = system: PC-3 prostate
A549 NSCLC = system: A549 NSCLC
OVCAR-4 ovarian = system: OVCAR-4 ovarian
NCI/ADR-RES ovarian = system: NCI/ADR-RES ovarian
SF-268 CNS = system: SF-268 CNS
M14 melanoma = system: M14 melanoma
MALME-3M melanoma = system: MALME-3M melanoma
NCI-H226 lung = system: NCI-H226 lung
HT29 colon = system: HT29 colon
HCC-2998 colon = system: HCC-2998 colon
OVCAR-8 ovarian = system: OVCAR-8 ovarian
NCI-H23 lung = system: NCI-H23 lung

Measured: TGI

CCOC(=O)NC(=S)NN(C)C1=NCC(C)(C)S1
not listed: OVCAR-4 ovarian | NCI/ADR-RES ovarian | SF-268 CNS | M14 melanoma | MALME-3M melanoma | NCI-H226 lung | HT29 colon | HCC-2998 colon | OVCAR-8 ovarian | NCI-H23 lung
> 100 µM: all other assays above

CCOC(=N)n1c(=O)n(C2=NCCN2)c2ccccc21
not listed: HS 578T breast | SK-MEL-5 melanoma | RPMI-8226 leukemia | SK-MEL-2 melanoma
> 100 µM: all other assays above

CSc1cc(Cl)c(C)cc1S(=O)(=O)NC(=O)NNc1ccc(Cl)cc1
not listed: HL-60(TB) leukemia | TK-10 renal | CCRF-CEM leukemia | BT-549 breast | UACC-257 melanoma | UO-31 renal | RPMI-8226 leukemia | HOP-92 NSCLC | UACC-62 melanoma | NCI-H23 lung
> 100 µM: all other assays above

CC1(C)N=C(C(N)=O)c2ncn(CCCO)c2N1
not listed: MOLT-4 leukemia | BT-549 breast | UO-31 renal | SK-MEL-2 melanoma
> 100 µM: all other assays above
